According to the OligoGym collection:
“And” between values parts separate entries of the source, which are not always exact repeats. Identical values can stand only once. After the bases stand the sugars from the 5' end (letter, count) and the backbone: PS all phosphorothioate, else s phosphorothioate and o phosphodiester by linkage. Methylation of C is not given here. k = constrained ethyl (cEt); d = 2'-deoxy (DNA)

target: MALAT1; details: ASO, A431, 0.005 µM

Row | Sequence | target mRNA inhibition
1 | TAGACCAACTAAGCGA (sugars k3 d10 k3, PS) | -9%
2 | TAGAGAAGAATCCCCC (sugars k3 d10 k3, PS) | 34%
3 | TAGAGGGCCTCTATTG (sugars k3 d10 k3, PS) | 39%
4 | TAGCAGCGGGATCAGA (sugars k3 d10 k3, PS) | 32%
5 | TAGCTTGACAAGCAAT (sugars k3 d10 k3, PS) | 12%
6 | TAGCTTGGCCAAGTCT (sugars k3 d10 k3, PS) | 19%
7 | TAGGATCCTCTACGCA (sugars k3 d10 k3, PS) | 23%
8 | TAGGCTTTAAATGACG (sugars k3 d10 k3, PS) | 26%
9 | TAGGTATGAGCTTCAG (sugars k3 d10 k3, PS) | 4%
10 | TAGTACTATAGCATCT (sugars k3 d10 k3, PS) | 49%
11 | TAGTGTAAAACATTGC (sugars k3 d10 k3, PS) | 35%
12 | TAGTTCTTCGGTTAAA (sugars k3 d10 k3, PS) | 6%
13 | TATAAGGTCAATAGTG (sugars k3 d10 k3, PS) | 38%
14 | TATACTTCTCCAATAC (sugars k3 d10 k3, PS) | 18%
15 | TATAGCTTGACAAGCA (sugars k3 d10 k3, PS) | 19%
16 | TATCCTGATATTGGAT (sugars k3 d10 k3, PS) | 24%
17 | TATCTTAGTAACCTAT (sugars k3 d10 k3, PS) | 21%
18 | TATTCCAGGATTAATG (sugars k3 d10 k3, PS) | 29%
19 | TATTGGTATTAATTCG (sugars k3 d10 k3, PS) | 13%
20 | TATTTAAGAACTCCAC (sugars k3 d10 k3, PS) | 26%
21 | TATTTAGAGGGCCTCT (sugars k3 d10 k3, PS) | 34%

Row | Sequence | target mRNA inhibition
22 | TATTTCGGCTTCTTTT (sugars k3 d10 k3, PS) | 47% and 65%
23 | TATTTTAAACGGGTCA (sugars k3 d10 k3, PS) | 3%
24 | TCAAAATCCTGAATGG (sugars k3 d10 k3, PS) | 38%
25 | TCAAACTAAGCTACTA (sugars k3 d10 k3, PS) | -1%
26 | TCAAGGATGTATATAG (sugars k3 d10 k3, PS) | 6%
27 | TCAAGTCAAGCTCCTG (sugars k3 d10 k3, PS) | 3%
28 | TCACCAAATTGCACTC (sugars k3 d10 k3, PS) | 21%
29 | TCACCGGAATTCGATC (sugars k3 d10 k3, PS) | -263%
30 | TCACGGATTTTTACCA (sugars k3 d10 k3, PS) | 28%
31 | TCACTGCAAGGTCTCA (sugars k3 d10 k3, PS) | 48%
32 | TCAGACAAGATTCATG (sugars k3 d10 k3, PS) | 31%
33 | TCAGCCTTTATCACTC (sugars k3 d10 k3, PS) | 13%
34 | TCAGTACGAAACTCCC (sugars k3 d10 k3, PS) | 41%
35 | TCATCCTACCACTCCC (sugars k3 d10 k3, PS) | 34%
36 | TCATGGATTTCAAGGT (sugars k3 d10 k3, PS) | 51%
37 | TCCAGCATAAAGCTGA (sugars k3 d10 k3, PS) | -9%
38 | TCCAGTCCCTGAAGGT (sugars k3 d10 k3, PS) | 12%
39 | TCCCATAACTGATCTG (sugars k3 d10 k3, PS) | 31%
40 | TCCCATCACTGAAGCC (sugars k3 d10 k3, PS) | 44%
41 | TCCCCAATGGAGGTAT (sugars k3 d10 k3, PS) | 9%
42 | TCCCCCCCAAGATTGC (sugars k3 d10 k3, PS) | -3%

Row | Sequence | target mRNA inhibition
43 | TCCCCCCCGCCTCAGT (sugars k3 d10 k3, PS) | 16%
44 | TCCCCTTCAAGCACCG (sugars k3 d10 k3, PS) | 19%
45 | TCCTCAATCCACTTGA (sugars k3 d10 k3, PS) | 44%
46 | TCCTCCGTGTGGTTGC (sugars k3 d10 k3, PS) | 18%
47 | TCCTTATTTAGAGGGC (sugars k3 d10 k3, PS) | 29%
48 | TCCTTCTATAGTCTGA (sugars k3 d10 k3, PS) | 14%
49 | TCGCCTCCTCCGTGTG (sugars k3 d10 k3, PS) | 33%
50 | TCGGTGCCTTTAGTGA (sugars k3 d10 k3, PS) | 29%
51 | TCGGTTAAAAATAGGT (sugars k3 d10 k3, PS) | 16%
52 | TCTAACATAGTTCAAC (sugars k3 d10 k3, PS) | 29%
53 | TCTATAGTCTGAAGAA (sugars k3 d10 k3, PS) | 26%
54 | TCTCCCACCTGTCTAA (sugars k3 d10 k3, PS) | 23%
55 | TCTGAACCGGAGCAGG (sugars k3 d10 k3, PS) | 19%
56 | TCTGACTTTGTATGTA (sugars k3 d10 k3, PS) | 48%
57 | TCTGATAACGAAGAGA (sugars k3 d10 k3, PS) | 21%
58 | TCTGCGGCCCCCCAGT (sugars k3 d10 k3, PS) | 25%
59 | TCTTACTGGGTCTGGC (sugars k3 d10 k3, PS) | 45%
60 | TCTTCGGTTAAAAATA (sugars k3 d10 k3, PS) | 19%
61 | TCTTGAAGACTGTTGC (sugars k3 d10 k3, PS) | 44%
62 | TGAACCCCGTCCTGGA (sugars k3 d10 k3, PS) | 3%
63 | TGAAGTGTACTATCCC (sugars k3 d10 k3, PS) | 72% and 88%

Row | Sequence | target mRNA inhibition
64 | TGAATTACTTCCGTTA (sugars k3 d10 k3, PS) | 36%
65 | TGAATTCAACTGGAAG (sugars k3 d10 k3, PS) | 36%
66 | TGACCCTACTGAAGAG (sugars k3 d10 k3, PS) | 21%
67 | TGACGCAATTCTCCCT (sugars k3 d10 k3, PS) | 33%
68 | TGAGAACTGCTCTAGT (sugars k3 d10 k3, PS) | 35%
69 | TGAGATGGACATTGCC (sugars k3 d10 k3, PS) | 74% and 92%
70 | TGAGTGTTCCTGCATG (sugars k3 d10 k3, PS) | 36%
71 | TGATCCCAACTCATCT (sugars k3 d10 k3, PS) | 14%
72 | TGCAAGGTCTCATACA (sugars k3 d10 k3, PS) | 32%
73 | TGCACTCGCTCCTTCC (sugars k3 d10 k3, PS) | 33%
74 | TGCATCGAGGTGAGGG (sugars k3 d10 k3, PS) | 21%
75 | TGCCAATATTTGCCCC (sugars k3 d10 k3, PS) | 20%
76 | TGCCATGGTTGATATT (sugars k3 d10 k3, PS) | 37%
77 | TGCCCAAATTAATGCA (sugars k3 d10 k3, PS) | 29%
78 | TGCCCTTAGCTTTTTG (sugars k3 d10 k3, PS) | 56%
79 | TGCCGACCTCACGGAT (sugars k3 d10 k3, PS) | 24%
80 | TGCCTACCACTCTAAG (sugars k3 d10 k3, PS) | -10%
81 | TGCCTTTAGGATTCTA (sugars k3 d10 k3, PS) | 45%
